ChEMBL document CHEMBL1133138, “Substituted 2-aminopyridines as inhibitors of nitric oxide synthases” (Bioorg Med Chem Lett, 2000)

Columns and labels:
[1] = test system: Rattus norvegicus; test: Dose required to increase mean aterial blood pressure (MAP) by 40 mm versus control after intravenous administration in rat; format: functional
[2] = test system: Mus musculus; test: Compound was evaluated for LPS induced nitric oxide increase in mouse plasma after peroral administration of the compound; format: functional; conditions: po
[3] = target: Nitric oxide synthase, inducible (Homo sapiens, UniProt P35228)
Description: Inhibitory activity against inducible nitric oxide synthase (iNOS)

[4] = target: T1, Nitric oxide synthase 3 (Homo sapiens, UniProt P29474)
T1 sequence (P29474 whole entry): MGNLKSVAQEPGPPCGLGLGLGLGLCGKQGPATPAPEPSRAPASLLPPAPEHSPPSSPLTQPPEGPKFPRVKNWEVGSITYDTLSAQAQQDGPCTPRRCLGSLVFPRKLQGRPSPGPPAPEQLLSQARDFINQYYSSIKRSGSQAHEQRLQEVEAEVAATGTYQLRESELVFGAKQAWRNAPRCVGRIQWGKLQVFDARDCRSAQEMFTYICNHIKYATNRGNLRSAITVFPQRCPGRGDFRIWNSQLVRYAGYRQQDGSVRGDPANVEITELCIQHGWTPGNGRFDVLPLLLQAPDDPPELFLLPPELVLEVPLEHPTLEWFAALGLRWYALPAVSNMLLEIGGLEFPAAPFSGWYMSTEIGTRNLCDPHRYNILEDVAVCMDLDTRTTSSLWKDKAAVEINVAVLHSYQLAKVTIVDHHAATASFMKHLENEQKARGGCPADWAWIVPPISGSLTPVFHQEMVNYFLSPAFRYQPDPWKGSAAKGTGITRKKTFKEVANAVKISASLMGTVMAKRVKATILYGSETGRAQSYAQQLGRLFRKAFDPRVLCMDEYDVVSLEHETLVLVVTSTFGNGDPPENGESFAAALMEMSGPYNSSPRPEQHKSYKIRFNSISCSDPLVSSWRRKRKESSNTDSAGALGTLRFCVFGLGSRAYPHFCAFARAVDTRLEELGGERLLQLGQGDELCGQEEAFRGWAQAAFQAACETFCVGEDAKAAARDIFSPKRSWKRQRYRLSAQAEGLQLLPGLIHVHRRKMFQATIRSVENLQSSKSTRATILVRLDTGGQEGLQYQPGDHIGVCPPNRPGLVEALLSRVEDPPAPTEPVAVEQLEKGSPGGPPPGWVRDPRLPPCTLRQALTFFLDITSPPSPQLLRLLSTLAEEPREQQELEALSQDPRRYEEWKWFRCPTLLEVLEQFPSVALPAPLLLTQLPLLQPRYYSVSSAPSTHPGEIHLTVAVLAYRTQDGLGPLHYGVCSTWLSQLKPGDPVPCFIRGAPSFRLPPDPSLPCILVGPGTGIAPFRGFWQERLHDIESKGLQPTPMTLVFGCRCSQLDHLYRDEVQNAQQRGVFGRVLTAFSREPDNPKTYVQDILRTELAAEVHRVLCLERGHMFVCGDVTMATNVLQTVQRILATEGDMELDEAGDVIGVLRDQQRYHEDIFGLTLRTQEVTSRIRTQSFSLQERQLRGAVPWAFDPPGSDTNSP
Description: Inhibitory activity against endothelial nitric oxide synthase (eNOS)

[5] = target: T2, Nitric oxide synthase 1 (Homo sapiens, UniProt P29475)
Description: Inhibitory activity against neuronal nitric oxide synthase

[6] = test system: Rattus norvegicus; test: Dose required to increase mean aterial blood pressure (MAP) by 40 mm versus control after intravenous administration in rats; format: functional
[7] = target: T2, Nitric oxide synthase 1; test: Inhibitory activity against Neuronal nitric oxide synthase; conditions: concentration not given here
[8] = target: T3, Nitric oxide synthase 3 (Homo sapiens) (UniProt P29474); test: Inhibitory activity against Endothelial nitric oxide synthase; conditions: concentration not given here
T3 sequence (whole entry): T1 sequence (P29474 whole entry)

T2 sequence (P29475 whole entry): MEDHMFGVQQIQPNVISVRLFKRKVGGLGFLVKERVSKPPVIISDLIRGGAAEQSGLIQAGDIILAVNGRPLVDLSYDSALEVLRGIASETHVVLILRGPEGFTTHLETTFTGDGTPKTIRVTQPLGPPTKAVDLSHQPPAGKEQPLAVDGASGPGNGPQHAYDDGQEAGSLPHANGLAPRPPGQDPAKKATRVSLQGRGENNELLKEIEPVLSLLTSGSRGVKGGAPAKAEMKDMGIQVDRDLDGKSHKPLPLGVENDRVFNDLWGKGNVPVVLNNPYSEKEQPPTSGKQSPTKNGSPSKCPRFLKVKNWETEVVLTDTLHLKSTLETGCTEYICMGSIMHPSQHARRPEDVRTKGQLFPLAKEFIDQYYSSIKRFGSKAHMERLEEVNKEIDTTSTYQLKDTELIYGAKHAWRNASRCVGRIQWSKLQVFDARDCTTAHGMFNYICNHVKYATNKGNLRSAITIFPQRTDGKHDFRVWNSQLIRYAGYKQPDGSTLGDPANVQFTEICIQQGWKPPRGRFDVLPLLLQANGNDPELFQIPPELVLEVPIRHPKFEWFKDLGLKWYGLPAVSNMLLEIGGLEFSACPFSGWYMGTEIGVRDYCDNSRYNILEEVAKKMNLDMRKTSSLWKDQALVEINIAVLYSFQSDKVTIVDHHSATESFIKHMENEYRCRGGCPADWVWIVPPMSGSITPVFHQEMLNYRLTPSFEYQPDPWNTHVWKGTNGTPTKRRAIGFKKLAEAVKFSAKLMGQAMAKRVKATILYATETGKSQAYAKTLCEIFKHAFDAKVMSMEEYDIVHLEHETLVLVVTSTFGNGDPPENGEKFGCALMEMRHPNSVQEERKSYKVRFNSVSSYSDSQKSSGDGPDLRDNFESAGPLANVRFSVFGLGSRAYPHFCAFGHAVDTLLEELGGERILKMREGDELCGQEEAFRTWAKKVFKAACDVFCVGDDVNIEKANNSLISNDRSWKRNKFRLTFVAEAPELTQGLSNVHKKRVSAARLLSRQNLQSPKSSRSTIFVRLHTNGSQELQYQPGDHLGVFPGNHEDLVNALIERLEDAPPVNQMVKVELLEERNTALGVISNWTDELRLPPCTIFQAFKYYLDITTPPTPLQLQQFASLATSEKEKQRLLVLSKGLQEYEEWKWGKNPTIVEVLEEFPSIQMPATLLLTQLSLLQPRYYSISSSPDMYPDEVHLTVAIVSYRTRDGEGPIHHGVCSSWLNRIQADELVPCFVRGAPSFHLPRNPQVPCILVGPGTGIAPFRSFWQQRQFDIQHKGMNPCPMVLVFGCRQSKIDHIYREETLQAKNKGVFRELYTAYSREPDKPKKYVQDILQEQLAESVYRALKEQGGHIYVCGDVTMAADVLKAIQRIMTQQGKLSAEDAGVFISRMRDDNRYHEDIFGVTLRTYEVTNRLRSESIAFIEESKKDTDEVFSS
Nitric oxide synthase, inducible, sequence (P35228 whole entry): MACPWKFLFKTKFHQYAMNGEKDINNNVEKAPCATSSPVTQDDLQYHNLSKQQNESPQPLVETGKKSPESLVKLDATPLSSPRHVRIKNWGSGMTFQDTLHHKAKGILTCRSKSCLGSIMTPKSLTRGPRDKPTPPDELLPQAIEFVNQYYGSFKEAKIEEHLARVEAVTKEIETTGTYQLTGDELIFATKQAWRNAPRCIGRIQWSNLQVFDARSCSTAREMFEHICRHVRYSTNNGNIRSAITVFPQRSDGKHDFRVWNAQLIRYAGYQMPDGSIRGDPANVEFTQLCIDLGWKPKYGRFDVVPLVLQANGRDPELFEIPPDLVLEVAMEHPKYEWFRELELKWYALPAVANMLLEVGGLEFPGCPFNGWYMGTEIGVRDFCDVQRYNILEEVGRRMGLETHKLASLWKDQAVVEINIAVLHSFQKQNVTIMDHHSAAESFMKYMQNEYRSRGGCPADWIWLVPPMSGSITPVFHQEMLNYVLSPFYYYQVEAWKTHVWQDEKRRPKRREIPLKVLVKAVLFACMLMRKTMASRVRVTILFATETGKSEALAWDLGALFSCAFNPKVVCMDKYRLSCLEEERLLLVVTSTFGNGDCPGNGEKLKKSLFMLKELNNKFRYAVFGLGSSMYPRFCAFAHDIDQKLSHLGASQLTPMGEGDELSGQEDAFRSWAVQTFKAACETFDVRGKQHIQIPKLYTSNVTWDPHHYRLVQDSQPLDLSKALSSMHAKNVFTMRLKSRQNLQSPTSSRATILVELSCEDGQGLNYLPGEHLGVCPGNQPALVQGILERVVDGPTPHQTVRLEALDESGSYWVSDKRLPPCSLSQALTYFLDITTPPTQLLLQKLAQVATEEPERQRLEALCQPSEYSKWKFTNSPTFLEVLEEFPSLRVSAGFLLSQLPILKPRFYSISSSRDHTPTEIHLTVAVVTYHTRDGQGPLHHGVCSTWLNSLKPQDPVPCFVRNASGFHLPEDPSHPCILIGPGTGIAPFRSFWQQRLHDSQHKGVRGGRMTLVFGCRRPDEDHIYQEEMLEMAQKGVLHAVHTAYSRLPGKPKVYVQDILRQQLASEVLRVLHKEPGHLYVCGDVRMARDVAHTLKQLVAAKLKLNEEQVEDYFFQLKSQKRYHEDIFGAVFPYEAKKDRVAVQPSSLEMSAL

SMILES | IC50 [3] [nM] | IC50 [4] [nM] | IC50 [5] [nM] | also measured
CC1CCN=C(N)C1 (stereo not drawn) | 16 | – | – | HD50 [1]: 1.8 mg/kg; ED50 [2]: 0.15 mg/kg
Cc1cc(N)nc2c1CCCC2 | 4000 | 19800 | 2400 | –
Cc1cc(N)nc(CCC(C)C)c1 | 76 | 1900 | 510 | –
Nc1ccccn1 [2-AMINOPYRIDINE] | 1900 | 2800 | – | –
Cc1ccnc(N)c1 | – | – | – | HD40 [6]: 0.11 mg/kg; ED50 [2]: 25 mg/kg
Cc1cc(C)nc(N)c1 | 110 | 45 | – | –
CCCc1ccnc(N)c1 | > 50000 | – | – | –
Cc1ccnc(N)c1N | 59 | – | – | –
Cc1cc(N)nc(CC(C)C)c1 | 28 | 150 | 100 | –
Cc1cc(N)nc(CCCc2ccccc2)c1 | 12700 | 17200 | 3300 | –
CCCCc1cc(C)cc(N)n1 | 46 | – | – | inhibition [7]: 59%; inhibition [8]: 40%
CCc1c(C)ccnc1N | 2700 | 3300 | – | –
Cc1cnc(N)cc1C | 810 | 600 | 340 | –
Cc1ccc(N)nc1 | 600 | – | – | –
N=C(N)NN [PIMAGEDINE] | 101000 | 500000 | 118000 | –
Nc1cc(Cl)ccn1 | > 50000 | – | – | –
Cc1ccc(N)nc1C | 7200 | 2800 | 2200 | –
Nc1cc2ccccc2cn1 [ISOQUINOLIN-3-AMINE] | > 50000 | – | – | –
CCCc1c(C)ccnc1N | 34500 | – | – | –
Nc1nccc2c1CCCC2 | 29000 | 24000 | 11000 | –
Cc1ccnc(N)c1C | – | 150 | – | –
CCc1cc(C)cc(N)n1 | 330 | 49 | – | inhibition [7]: 42%
Nc1cc2c(cn1)CCCC2 | 4100 | 16600 | 10600 | –
Cc1cccnc1N | 940 | – | 1300 | –
Cc1cnc(N)c(C)c1 | 14600 | 3600 | 2000 | –
Cc1cc(N)nc(C(C)C)c1 | 110 | 200 | 1200 | –
CCc1cnc(N)cc1C | 1300 | 3400 | 610 | –
Nc1ccc2c(n1)CCC2 | > 50000 | > 50000 | > 50000 | –
CC(=N)NCCCC[C@H](N)C(=O)O [L-NIL] | 1400 | 7900 | 18400 | –
